Counter-ions that a name gives are not always drawn. Like-named read-outs stand apart in the source and are kept apart here.
Columns and labels:
Neutrophils = experiment: Neutrophil migration inhibitory action, Boyden Chamber, FMLP (Test Example 5); format: cell-based, human; details: Homo sapiens, Neutrophil, 0.5 h, FMLP (1 µM), migration at 37°C for 30 minutes; read-out: Neutrophil migration inhibition IC50
Procedure: Neutrophils were isolated from 50 to 100 ml of peripheral blood collected from healthy donors by the method described in Test Example 1 to obtain a cell suspension (8 x 10^6/ml). Subsequently, solutions of a test compound at various concentrations were introduced into wells of a 96-well plate in a volume of 125 µl per well, the cell suspension of an equivalent volume was added to it and the plate was preincubated at room temperature for 5 minutes. During the preincubation, FMLP (1 µM, Sigma) solution was added to the lower chamber to set Boyden Chamber, the preincubated cell suspension was added to the upper chamber in a volume of 200 µl per well, and the cells were allowed to migrate at 37°C under 5% carbon dioxide for 30 minutes. The filter after the migration was collected, and the non-migrated cells adhered to the surface that faced the upper chamber were carefully wiped off. Then, the migrated cells on the back surface were stained with DifQuick dye solution (International Reagents), washed with water and dried, and then absorbance was measured at 595 nm. The inhibition ratio against migration (%) of a test compound was calculated by using the following equation: Migration inhibition ratio (%) = (1 -Absorbance of the group with addition of test compound /Absorbance of the group without addition of test compound) x 100 [formula]

[1] = test system: myosin regulatory light chain; experiment: Action on amount of phosphorylated myosin regulatory light chain in the cells (Test Example 1); format: cell-based, human; details: neutrophils of healthy volunteers, reaction with test compound at 25°C for 5 minutes, read-out: Inhibition of myosin regulatory light chain phosphorylation (IC50: µM)
Procedure: The neutrophils were washed with PBS(-) and resuspended in Hanks' Balanced Salt Solution (HBSS+, Gibco) to prepare a cell suspension (8 x 10^6/ml). The cell suspension was diluted to 5 x 10^6/ml, introduced into Eppendorf tubes in a volume of 0.4 ml each, then 0.1 ml each of solutions of a test compound at various concentrations were added to the suspension and allowed to react at 25°C for 5 minutes. After the reaction, 0.1 ml of trichloroacetic acid solution was added to each reaction, the reaction mixture was gently shaken and centrifuged at 12,000 rpm (4°C, 5 minutes), and the supernatant was removed. Subsequently, 3 μl of 1 M Tris solution was added to the residue, the mixture was further mixed with 50 μl of extraction buffer (8 M urea, 0.02% 2-mercaptoethanol, 0.002% bromophenol blue) and left stand at room temperature for 1 hour. Then, the reaction mixture was loaded on a spin column (0.45 μm, Millipore) to remove the insoluble solids and a sample buffer for SDS polyacrylamide gel electrophoresis (25 mM, Tris-HCl pH 6.8, 2.5% 2-mercaptoethanol, 2% sodium dodecylsulfate, 5% sucrose, 0.002% bromophenol blue as final concentrations) was added, and 10 μl of each sample was subjected to electrophoresis. […] J. Physiol., 274, […]-[…] (1998)), which specifically recognize the phosphorylated myosin regulatory light chain, and donkey anti-mouse IgG (Chemicon) conjugated with horseradish peroxidase (HRP-labeled). The band of the phosphorylated myosin regulatory light chain was detected on a film by using ECL Plus Kit (Amersham Pharmacia Biotech). This band was subjected to quantification using a densitometer. By using this value, the inhibitory ratio (%) for phosphorylation of the myosin regulatory light chain was calculated by using the following equation.

[2] = test system: ovalbumin-immunized guinea pigs; experiment: Respiratory tract constriction suppression action, ovalbumin-induced (Test Example 3); format: in vivo, Hartley guinea pigs; details: result in words; test medicament given into hind leg vein after induction with 0.3 mg/kg ovalbumin, measured for 15 minutes
Procedure: Four-week old Hartley guinea pigs (male) were immunized by intraperitoneal administration of ovalbumin (Sigma, Grade V) in amounts of 1 mg for each animal on the day on which the experiment was started, 3 mg for each animal after 2 days, and 10 mg for each animal after 4 days. Twelve to fourteen days after the final immunization, the ovalbumin-immunized guinea pigs were anesthetized by intraperitoneal administration of about 40 mg/kg of pentobarbital (Somnopentyl), and the tracheas were taken out. Subsequently, a cannula (SP-110, Natsume) was inserted into each trachea, and one end of the cannula was connected to an artificial respirator (Model-b83, Harvard). The aeration conditions were set at 6 ml per kilogram and 60 times per 1 minute. Further, a cannula for medicament administration (JMS wing needle 23G 3/4) was inserted into a hind leg vein. Myoblock (Organon Technica) was administered in an amount of 0.5 mg/kg from the cannula inserted into the hind leg vein to stop the spontaneous breathing, and after 2 or 3 minutes, 0.3 mg/kg of ovalbumin was administered to induce constriction of respiratory tract. The increase of airway resistance value 2 minutes after the induction (measurement apparatuses: pressure transducer TR-603T, respiratory amplifier AR-601G, and recorder RTA-3100, Nihon Kohden Corp.) was confirmed to be above 80 cm H2O or higher, and then, a solution of a test medicament was administered from the cannula inserted into the hind leg vein, and the airway resistance value was continuously measured for 15 minutes after the administration to determine the effect.

Japanese white rabbit = experiment: Intraocular pressure reducing action (Test Example 4); format: in vivo; details: for intraocular pressure reducing activity: result in words
Procedure: A Japanese white rabbit having a body weight of about 2 kg was placed in a positioner and naturalized for one week before the experiment. An ophthalmologic local […] (Benoxil) was administered to the left eye, and then intraocular pressure was measured by using a tonometer (Classic 30, Solan). The initial value of the intraocular pressure was measured, then 50 μl of a test compound (1% aqueous solution) was dropped to the left eye, and after 2 hours, the intraocular pressure was measured. The intraocular pressure reducing action of the test compounds is shown in Table 7 mentioned below as ratios (%) of reduction of intraocular pressure based on the initial value of the intraocular pressure.

thoracic aorta = experiment: Vasoconstriction inhibitory action on aorta rings constricted with phenylephrine (Test Example 2); parameters: species or system Rats (Wistar, 11-week old); details: result in words; aorta constricted with phenylephrine (1 µM)
Text: Rats (Wistar, 11-week old) were bleeded to death and laparotomized to take out the thoracic aorta.

[3] = Homo sapiens, Neutrophil, 5 min

Cl.Nc1nccc2c(OCC3CCCNC3)cccc12 (stereo not shown) [Example 11, 3-[(1-Amino-5-isoquinolyl)oxy]methylpiperidine hydrochloride]
IC50 (Neutrophils): 1 to 10 µM
IC50 [1, 3]: 1 to 20 µM
constriction of respiratory tract (airway resistance value) [2]: significantly improved the constriction of respiratory tract

Brc1cncc2cccc(NC3CCNCC3)c12 [Example 103, 4-(4-Bromo-5-isoquinolyl)aminopiperidine hydrochloride]
IC50 (Neutrophils): 1 to 10 µM
inhibition in vivo at 1 % (Japanese white rabbit; Oryctolagus cuniculus, topical, 50 µl of test compound (1% aqueous solution) dropped to the left eye, after 2 hours, read-out: Intraocular pressure reducing action (reduction ratio) (%)): 31.3%
IC50 [1, 3]: ≤ 40 µM
IC50 ([1]; hydrochloride): ≤ 20 µM

CCc1cncc2cccc(NC3CCNCC3)c12.Cl [Example 113, 4-(4-Ethyl-5-isoquinolyl)aminopiperidine hydrochloride]
IC50 (Neutrophils): ≤ 40 µM
intraocular pressure reducing activity (Japanese white rabbit): significant intraocular pressure reducing activity
IC50 [1, 3]: ≤ 40 µM
IC50 ([1]; hydrochloride): ≤ 20 µM
vasoconstriction inhibitory action (thoracic aorta): significant vasoconstriction inhibitory action

Cl.Clc1cncc2cccc(NC3CCNCC3)c12 [Example 118, 4-(4-Chloro-5-isoquinolyl)aminopiperidine hydrochloride]
IC50 [1, 3]: ≤ 40 µM
IC50 ([1]; hydrochloride): ≤ 20 µM
constriction of respiratory tract (airway resistance value) [2]: significantly improved the constriction of respiratory tract

Cc1cncc2cccc(N[C@H]3CC[C@@H](N)CC3)c12.Cl [Example 120, Cis-N-(4-methyl-5-isoquinolyl)-1,4-cyclohexanediamine hydrochloride]
intraocular pressure reducing activity (Japanese white rabbit): significant intraocular pressure reducing activity
IC50 [1, 3]: ≤ 40 µM
IC50 ([1]; hydrochloride): ≤ 20 µM
vasoconstriction inhibitory action (thoracic aorta): significant vasoconstriction inhibitory action

Cc1cncc2cccc(N[C@H]3CC[C@H](N)CC3)c12.Cl [Example 121, Trans-N-(4-methyl-5-isoquinolyl)-1,4-cyclohexanediamine hydrochloride]
IC50 (Neutrophils): 1 to 10 µM
IC50 [1, 3]: ≤ 40 µM
IC50 ([1]; hydrochloride): ≤ 20 µM
constriction of respiratory tract (airway resistance value) [2]: significantly improved the constriction of respiratory tract
vasoconstriction inhibitory action (thoracic aorta): significant vasoconstriction inhibitory action

CS(=O)(=O)c1ccc(CCCN(CCCN)S(=O)(=O)c2cccc3cnccc23)cc1.Cl [Example 124, N-[(5-Isoquinolyl)sulfonyl]-N-[3-(4-methanesulfonyl)phenylpropyl]-1,3-propylenediamine hydrochloride]
Intraocular pressure reducing action (reduction ratio) (%) (Japanese white rabbit; 50 µl of test compound (1% aqueous solution) dropped to the left eye, after 2 hours): 12.5%
IC50 ([1]; hydrochloride): ≤ 20 µM

Cl.N[C@H]1CC[C@H](Oc2cccc3cncc(Br)c23)CC1 [Example 133, Trans-4-[(4-bromo-5-isoquinolyl)oxy]cyclohexylamine hydrochloride]
intraocular pressure reducing activity (Japanese white rabbit): significant intraocular pressure reducing activity
IC50 [1, 3]: ≤ 40 µM
IC50 ([1]; hydrochloride): ≤ 20 µM
constriction of respiratory tract (airway resistance value) [2]: significantly improved the constriction of respiratory tract

Cl.N#Cc1cncc2cccc(O[C@H]3CC[C@H](N)CC3)c12 [Example 134, Trans-4-[(4-cyano-5-isoquinolyl)oxy]cyclohexylamine hydrochloride]
intraocular pressure reducing activity (Japanese white rabbit): significant intraocular pressure reducing activity
IC50 [1, 3]: ≤ 40 µM
IC50 ([1]; hydrochloride): ≤ 20 µM
vasoconstriction inhibitory action (thoracic aorta): significant vasoconstriction inhibitory action

Cl.N[C@H]1CC[C@H](Oc2cccc3cnccc23)CC1 [Example 135, Trans-4-[(5-isoquinolyl)oxy]cyclohexylamine hydrochloride]
intraocular pressure reducing activity (Japanese white rabbit): significant intraocular pressure reducing activity
IC50 [1, 3]: ≤ 40 µM
IC50 ([1]; hydrochloride): ≤ 20 µM

C=Cc1cncc2cccc(O[C@H]3CC[C@H](N)CC3)c12.Cl [Example 136, Trans-4-[(4-vinyl-5-isoquinolyl)oxy]cyclohexylamine hydrochloride]
IC50 (Neutrophils): ≤ 40 µM
intraocular pressure reducing activity (Japanese white rabbit): significant intraocular pressure reducing activity
IC50 [1, 3]: ≤ 40 µM
IC50 ([1]; hydrochloride): ≤ 20 µM
vasoconstriction inhibitory action (thoracic aorta): significant vasoconstriction inhibitory action

Cc1cncc2cccc(OC3CCNCC3)c12.Cl [Example 139, 4-[(4-Methyl-5-isoquinolyl)oxy]piperidine hydrochloride]
intraocular pressure reducing activity (Japanese white rabbit): significant intraocular pressure reducing activity
IC50 [1, 3]: ≤ 40 µM
IC50 ([1]; hydrochloride): ≤ 20 µM
vasoconstriction inhibitory action (thoracic aorta): significant vasoconstriction inhibitory action

Cc1cncc2cccc(O[C@H]3CC[C@H](N)CC3)c12.Cl [Example 140, Trans-4-[(4-methyl-5-isoquinolyl)oxy]cyclohexylamine hydrochloride]
intraocular pressure reducing activity (Japanese white rabbit): significant intraocular pressure reducing activity
IC50 [1, 3]: ≤ 40 µM
IC50 ([1]; hydrochloride): ≤ 20 µM
constriction of respiratory tract (airway resistance value) [2]: significantly improved the constriction of respiratory tract
vasoconstriction inhibitory action (thoracic aorta): significant vasoconstriction inhibitory action

Cl.OCCN1CCC(Nc2cccc3cnccc23)CC1 [Example 144, 1-(2-Hydroxyethyl)-4-(5-isoquinolyl)aminopiperidine hydrochloride]
intraocular pressure reducing activity (Japanese white rabbit): significant intraocular pressure reducing activity
IC50 [1, 3]: ≤ 40 µM
constriction of respiratory tract (airway resistance value) [2]: significantly improved the constriction of respiratory tract

Cl.OCCCN1CCC(Nc2cccc3cnccc23)CC1 [Example 145, 1-(3-Hydroxypropyl)-4-(5-isoquinolyl)aminopiperidine hydrochloride]
IC50 (Neutrophils): ≤ 40 µM
intraocular pressure reducing activity (Japanese white rabbit): significant intraocular pressure reducing activity
IC50 [1, 3]: ≤ 40 µM
IC50 ([1]; hydrochloride): ≤ 20 µM

Cc1cncc2cccc(NC3CCN(CCO)CC3)c12.Cl [Example 146, 1-(2-Hydroxyethyl)-4-(4-methyl-5-isoquinolyl)aminopiperidine hydrochloride]
IC50 (Neutrophils): ≤ 40 µM
intraocular pressure reducing activity (Japanese white rabbit): significant intraocular pressure reducing activity
IC50 [1, 3]: ≤ 40 µM
IC50 ([1]; hydrochloride): ≤ 20 µM
constriction of respiratory tract (airway resistance value) [2]: significantly improved the constriction of respiratory tract
vasoconstriction inhibitory action (thoracic aorta): significant vasoconstriction inhibitory action
